Reference: US6020366A, “Butyric acid matrix metalloproteinase inhibitors” (priority 1998, dated 2000)

Tests used:
Format in all cases: biochemical
[1] = biological target: T1, MMP-2 (Gelatinase A) (Homo sapiens, UniProt P08253); test: inhibition of MMP-2 hydrolysis of thiopeptolide substrate; conditions: thiopeptolide substrate, pH 6.0, 22° C.; read-out: (IC50) MMP-2
T1 sequence (P08253 110-660): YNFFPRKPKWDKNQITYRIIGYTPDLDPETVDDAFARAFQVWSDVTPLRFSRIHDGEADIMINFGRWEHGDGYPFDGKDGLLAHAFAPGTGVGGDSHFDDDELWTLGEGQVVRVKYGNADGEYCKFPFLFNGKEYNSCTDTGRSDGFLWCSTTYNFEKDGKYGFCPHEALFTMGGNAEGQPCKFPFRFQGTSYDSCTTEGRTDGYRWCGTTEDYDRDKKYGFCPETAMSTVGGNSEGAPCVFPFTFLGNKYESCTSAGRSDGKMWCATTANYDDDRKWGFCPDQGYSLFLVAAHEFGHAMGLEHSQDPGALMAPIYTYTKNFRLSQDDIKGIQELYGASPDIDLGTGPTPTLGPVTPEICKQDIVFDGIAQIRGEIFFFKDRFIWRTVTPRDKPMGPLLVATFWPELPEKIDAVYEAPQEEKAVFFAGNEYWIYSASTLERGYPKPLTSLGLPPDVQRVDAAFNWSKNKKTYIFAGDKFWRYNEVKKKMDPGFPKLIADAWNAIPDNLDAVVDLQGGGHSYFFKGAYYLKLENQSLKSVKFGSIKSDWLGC

[2] = biological target: MMP-3 (stromelysin) (Homo sapiens, UniProt P08254); test: inhibition of MMP-3 hydrolysis of thiopeptolide substrate; conditions: thiopeptolide substrate, pH 6.0, 22° C.; read-out: (IC50) MMP-3
MMP-3 (stromelysin), sequence (P08254 100-477): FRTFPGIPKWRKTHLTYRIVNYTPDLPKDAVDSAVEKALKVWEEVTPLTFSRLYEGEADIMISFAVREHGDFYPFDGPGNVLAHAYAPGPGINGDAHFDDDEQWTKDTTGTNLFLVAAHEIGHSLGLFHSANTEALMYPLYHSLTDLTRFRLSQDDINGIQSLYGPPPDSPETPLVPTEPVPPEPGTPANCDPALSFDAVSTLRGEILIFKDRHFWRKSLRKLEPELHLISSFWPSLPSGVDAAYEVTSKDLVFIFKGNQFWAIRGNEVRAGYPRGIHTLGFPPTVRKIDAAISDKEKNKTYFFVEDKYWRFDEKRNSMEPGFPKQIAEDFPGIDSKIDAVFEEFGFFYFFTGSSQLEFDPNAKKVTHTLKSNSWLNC
Text: The assays measure the amount by which a test compound reduces the hydrolysis of a thiopeptolide substrate caused by a matrix metalloproteinase enzyme. Such assays are described in detail by Ye, et al., in Biochemistry, 1992;31(45):11231-11235).
Thiopeptolide substrates show virtually no decomposition or hydrolysis in the absence of a matrix metalloproteinase enzyme. A typical thiopeptolide substrate commonly utilized for assays is Ac-Pro-Leu-Gly-thioester-Len-Len-Gly-O Et. […] Assays are carried out with and without matrix metalloproteinase inhibitor compounds, and the amount of hydrolysis is compared for a determination of inhibitory activity of the test compounds.
In the table, MMP-1 refers to interstitial collagenase; MMP-2 refers to Gelatinase A; MMP-3 refers to stromelysin; MMP-7 refers to matrilysin; and MMP-13 refers to Collagenase 3.

[3] = biological target: MMP-13 (Collagenase 3) (Homo sapiens, UniProt P45452); test: inhibition of MMP-13 hydrolysis of thiopeptolide substrate; conditions: thiopeptolide substrate, pH 6.0, 22° C.; read-out: (IC50) MMP-13
Text: (§1) The invention compounds have been evaluated in standard in vitro assays and shown to be potent inhibitors of several matrix metalloproteinase enzymes.

[4] = biological target: T2, full-length collagenase (FLC) (Homo sapiens, UniProt P03956); test: inhibition of full-length collagenase hydrolysis of thiopeptolide substrate
T2 construct: full-length collagenase hydrolysis of thiopeptolide substrate (FLC)
T2 sequence (P03956 100-469): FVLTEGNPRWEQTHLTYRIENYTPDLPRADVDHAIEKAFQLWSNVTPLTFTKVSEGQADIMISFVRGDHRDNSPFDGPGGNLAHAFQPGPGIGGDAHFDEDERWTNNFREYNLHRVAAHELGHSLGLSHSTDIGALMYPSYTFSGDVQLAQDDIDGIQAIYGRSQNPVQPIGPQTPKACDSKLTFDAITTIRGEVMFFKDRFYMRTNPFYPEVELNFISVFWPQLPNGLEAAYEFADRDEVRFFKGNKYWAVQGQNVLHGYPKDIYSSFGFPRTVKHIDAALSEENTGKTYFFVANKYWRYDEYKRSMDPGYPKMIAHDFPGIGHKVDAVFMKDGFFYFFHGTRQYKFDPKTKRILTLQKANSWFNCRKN
Text: as §1
(§2) The compounds were additionally evaluated for their ability to inhibit full-length collagenase hydrolysis of thiopeptolide substrate (FLC) and full-length gelatinase B (FLGB) hydrolysis of thiopeptolide.

[5] = biological target: T3, full-length gelatinase B (FLGB) (Homo sapiens, UniProt P14780); test: inhibition of full-length gelatinase B hydrolysis of thiopeptolide
T3 construct: full-length gelatinase B (FLGB) hydrolysis of thiopeptolide
T3 sequence (P14780 94-707): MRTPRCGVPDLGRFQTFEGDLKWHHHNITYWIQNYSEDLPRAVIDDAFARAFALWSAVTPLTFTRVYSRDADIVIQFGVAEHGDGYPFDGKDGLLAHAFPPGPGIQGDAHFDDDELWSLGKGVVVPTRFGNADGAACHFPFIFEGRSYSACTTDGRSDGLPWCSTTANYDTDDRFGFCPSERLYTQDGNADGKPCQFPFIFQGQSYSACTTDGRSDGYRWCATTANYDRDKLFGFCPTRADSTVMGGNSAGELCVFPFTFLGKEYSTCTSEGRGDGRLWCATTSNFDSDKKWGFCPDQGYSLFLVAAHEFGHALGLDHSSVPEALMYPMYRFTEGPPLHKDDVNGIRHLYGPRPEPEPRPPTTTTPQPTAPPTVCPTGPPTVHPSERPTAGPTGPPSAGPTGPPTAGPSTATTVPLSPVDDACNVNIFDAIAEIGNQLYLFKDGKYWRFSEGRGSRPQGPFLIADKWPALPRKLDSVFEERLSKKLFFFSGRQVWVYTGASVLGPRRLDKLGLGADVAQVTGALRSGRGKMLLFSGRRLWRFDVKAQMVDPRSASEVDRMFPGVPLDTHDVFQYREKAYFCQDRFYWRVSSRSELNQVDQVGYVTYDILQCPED
Text: as §1, §2

[6] = biological target: T4, MMP-1 (interstitial collagenase) (Homo sapiens, UniProt P03956); test: inhibition of MMP-1 hydrolysis of thiopeptolide substrate; conditions: pH 6.0, 22° C.
T4 sequence (P03956 100-469): T2 sequence (P03956 100-469)
Text: as §1

Compound	IC50 [1] [nM]	IC50 [2] [nM]	IC50 [3] [nM]	IC50 [4] [nM]	IC50 [5] [nM]	IC50 [6] [nM]
Cc1ccc(S(=O)(=O)N[C@@H](CC(=O)c2ccc3oc4ccccc4c3c2)C(=O)O)cc1 [Example 14, (S) -4-Dibenzofuran-2-yl-4-oxo-2-(4-methylphenylsulfonylamino)-butyric acid]	17	260	1100			83000
CCCCCCC(=O)NC(CC(=O)c1ccc2oc3ccccc3c2c1)C(=O)O (stereo not shown) [Example 33, 4-Dibenzofuran-2-yl-2-heptanoylamino-4-oxo-butyric acid]	60	640	4700			
CCCCc1ccc(C(=O)NC(CC(=O)c2ccc3oc4ccccc4c3c2)C(=O)O)cc1 (stereo not shown) [Example 34, 2-(4-Butyl-benzoylamino)-4-dibenzofuran-2-yl-4-oxo-butyric acid]	870	5400	49000			
CCCCOc1ccc(C(=O)NC(CC(=O)c2ccc3oc4ccccc4c3c2)C(=O)O)cc1 (stereo not shown) [Example 37, 2-(4-Butoxy-benzoylamino)-4-dibenzofuran-2-yl-4-oxo-butyric acid]	800	5000	58000			
O=C(CC(NC(=O)c1cnc2ccccc2n1)C(=O)O)c1ccc2oc3ccccc3c2c1 (stereo not shown) [Example 44, 4-Dibenzofuran-2-yl-4-oxo-2-[(quinoxaline-2-carbonyl)-amino]-butyric acid]	310	3500	27000			
COc1ccc(C(=O)NC(CC(=O)c2ccc3oc4ccccc4c3c2)C(=O)O)cc1OC (stereo not shown) [Example 47, 4-Dibenzofuran-2-yl-2-(3,4-dimethoxy-benzoylamino)-4-oxo-butyric acid]	130	870	8800			
O=C(CC(NC(=O)C1CCCC1)C(=O)O)c1ccc2oc3ccccc3c2c1 (stereo not shown) [Example 49, 2-(Cyclopentanecarbonyl-amino)-4-dibenzofuran-2-yl-4-oxo-butyric acid]	80	350	4400			
O=C(CC(NC(=O)C1CCCCC1)C(=O)O)c1ccc2oc3ccccc3c2c1 (stereo not shown) [Example 50, 2-(Cyclohexanecarbonyl-amino)-4-dibenzofuran-2-yl-4-oxo-butyric acid]	150	700	9100			
CCC(C(=O)NC(CC(=O)c1ccc2oc3ccccc3c2c1)C(=O)O)c1ccccc1 (stereo not shown) [Example 54, 4-Dibenzofuran-2-yl-4-oxo-2-(2-phenylbutyrylamino)-butyric acid]	60	250	1500			
Cc1nn(-c2ccccc2)nc1C(=O)NC(CC(=O)c1ccc2oc3ccccc3c2c1)C(=O)O (stereo not shown) [Example 55, 4-Dibenzofuran-2-yl-2-[(5-methyl-2-phenyl-2H-[1,2,3]triazole-4-carbonyl)-amino]-4-oxo-butyric acid]	1800	14000	70000			

Other lines, results leading:

IC50 [1] [nM]	IC50 [2] [nM]	IC50 [3] [nM]	IC50 [4] [nM]	IC50 [5] [nM]	IC50 [6] [nM]	Compound
59	950	2800	> 100000	> 100000		O=C(C[C@H](NC(=O)C(F)(F)F)C(=O)O)c1ccc2oc3ccccc3c2c1 [Example 1, (S)-4-Dibenzofuran-2-yl-4-oxo-2-(2,2,2-trifluoroacetylamino)-butyric acid]
35	100	2900			45000	CC(Oc1ccccc1)C(=O)NC(CC(=O)c1ccc2oc3ccccc3c2c1)C(=O)O (stereo not shown) [Example 30, 4-Dibenzofuran-2-yl-4-oxo-2-(2-phenoxy-propionylamino)-butyric acid]
110	1100	11000				N#Cc1ccc(C(=O)NC(CC(=O)c2ccc3oc4ccccc4c3c2)C(=O)O)cc1 (stereo not shown) [Example 35, 2-(4-Cyano-benzoylamino)-4-dibenzofuran-2-yl-4-oxo-butyric acid]
140	1000	13000				O=C(CC(NC(=O)c1sccc1Cl)C(=O)O)c1ccc2oc3ccccc3c2c1 (stereo not shown) [Example 36, 2-[(3-Chloro-thiophene-2-carbonyl)-amino)-4-dibenzofuran-2-yl-4-oxo-butyric acid]
90	850	5600				O=C(CC(NC(=O)C1CC1)C(=O)O)c1ccc2oc3ccccc3c2c1 (stereo not shown) [Example 38, 2-(Cyclopropanecarbonyl-amino)-4-dibenzofuran-2-yl-4-oxo-butyric acid]
150	1200	12000				O=C(CC(NC(=O)c1ccc(Cl)cc1)C(=O)O)c1ccc2oc3ccccc3c2c1 (stereo not shown) [Example 39, 2-(4-Chloro-benzoylamino)-4-dibenzofuran-2-yl-4-oxo-butyric acid]
140	1500	12000				O=C(CC(NC(=O)c1ccco1)C(=O)O)c1ccc2oc3ccccc3c2c1 (stereo not shown) [Example 41, 4-Dibenzofuran-2-yl-2-[(furan-2-carbonyl)-amino]-4-oxo-butyric acid]
180	1300	17000				O=C(CC(NC(=O)c1ccc(Br)cc1)C(=O)O)c1ccc2oc3ccccc3c2c1 (stereo not shown) [Example 42, 2-(4-Bromo-benzoylamino)-4-dibenzofuran-2-yl-4-oxo-butyric acid]
70	660	7100				O=C(CC(NC(=O)c1ccc(F)cc1)C(=O)O)c1ccc2oc3ccccc3c2c1 (stereo not shown) [Example 43, 4-Dibenzofuran-2-yl-2-(4-fluoro-benzoylamino)-4-oxo-butyric acid]
110	1000	15000				O=C(CC(NC(=O)c1ccccn1)C(=O)O)c1ccc2oc3ccccc3c2c1 (stereo not shown) [Example 45, 4-Dibenzofuran-2-yl-4-oxo-2-[(pyridine-2-carbonyl)-amino]-butyric acid]
140	1000	11000				COc1ccc(C(=O)NC(CC(=O)c2ccc3oc4ccccc4c3c2)C(=O)O)cc1 (stereo not shown) [Example 46, 4-Dibenzofuran-2-yl-2-(4-methoxy-benzoylamino)-4-oxo-butyric acid]
320	1500	20000				O=C(CC(NC(=O)c1ccc(C(F)(F)F)cc1)C(=O)O)c1ccc2oc3ccccc3c2c1 (stereo not shown) [Example 48, 4-Dibenzofuran-2-yl-4-oxo-2-(4-trifluoromethyl-benzoylamino)-butyric acid]
160	1300	16000				O=C(CC(NC(=O)c1cccs1)C(=O)O)c1ccc2oc3ccccc3c2c1 (stereo not shown) [Example 51, 4-Dibenzofuran-2-yl-4-oxo-2-[(thiophene-2-carbonyl)-amino]-butyric acid]
2500	7700	48000				O=C(Cc1cccs1)NC(CC(=O)c1ccc2oc3ccccc3c2c1)C(=O)O (stereo not shown) [Example 52, 4-Dibenzofuran-2-yl-4-oxo-2-(2-thiophen-2-yl-acetylamino)-butyric acid]
130	1000	9200				O=C(CC(NC(=O)c1ccc2c(c1)OCO2)C(=O)O)c1ccc2oc3ccccc3c2c1 (stereo not shown) [Example 53, 2-[(Benzo[1,3)dioxole-5-carbonyl)-amino]-4-dibenzofuran-2-yl-4-oxo-butyric acid]
